From patent US4108991A, “N-aminosulfenyl derivatives of aldicarb” (priority 1976, dated 1978)

System: rats
Assay: Toxicity to rats, acute oral median lethal dose (LD50), Method A
Format: in vivo, young female albino rats, derived from Sprague-Dawley stock
Conditions: rat, ratio to aldicarb
Protocol: Method A: Young female albino rats, derived from Sprague-Dawley stock and weighing between 175 and 200 g, were used. An initial screening was conducted to determine the general level of toxicity of the test compounds and to establish the dosing range to be used with each compound. The test materials were suspended in corn oil and administered directly into the stomachs of the rats, using a hypodermic syringe equipped with a ball-tipped intubating needle. A range of dosing levels was employed utilizing two rats at each level. […] This method was used to determine the toxicity to rats of the compounds of Examples I, II, and III and aldicarb.

Compound | Enhancement LD50 Derivative/LD50 Aldicarb
CCCCN(CCCC)SN(C)C(=O)ON=CC(C)(C)SC [Example III, 2-methyl-2-(methylthio)propanal O-[(dibutylaminosulfenyl)(methyl)carbamoyl]oxime] | 25

System: Two-spotted spider mite
Assay: Initial contact activity, leaf dip, two-spotted spider mite
Format: in vivo, Tetranychus urticae Koch
Conditions: Tetranychus urticae, foliar, 48 h, initial, SM, 10 PPM, 48 hours; read-out: Percent Kill
Protocol: (§1) Initial Contact Activity: One half gram of test compound was dissolved in 40 ml of acetone and this solution was dispersed in 360 ml of water containing one drop of isooctylphenyl polyethoxyethanol. Aliquots of this solution, which corresponds to 1250 ppm of active ingredient, were diluted with an appropriate amount of water to provide solutions containing various concentrations of active ingredient. Test organisms and techniques were as follows: The activity against the Mexican bean beetle (Epilachna varivestis Muls.) and the southern armyworm (Spodoptera eridania [Cram.]) was evaluated by dipping the leaves of pinto bean plants into the test solution and infesting the leaves with the appropriate immature-form insects when the foiliage had dried; the activity against the pea aphid (Acyrthosiphon pisum [Harris]) was evaluated on broad bean plants whose leaves were dipped before infestation with adult aphids; the activity against two-sotted spider mites (Tetranychus urticae Koch) was evaluated on pinto bean plants whose leaves were dipped after infestation with adult mites; the activity against the milkweed bug (Oncopeltus fasciatus [Dallas]), and the plum curculio (Conotrachelus nenuphar [Herbst]) was evaluated by spraying the test solutions into glass dishes or jars containing the adult insects; the activity against the confused flour beetle (Tribolium confusum duVal) was evaluated by introducing the insects into glass dishes which had been previously sprayed with test solution and allowed to dry. All organisms in the test were maintained in a holding room at 80° F and 50% relative humidity for an exposure period of 48 hours. At the end of this time, the dead and living insects or mites were counted, and the percent kill was calculated.

Compound | mortality at 10 ppm [%]
CCCCN(CCCC)SN(C)C(=O)ON=CC(C)(C)SC [Example III, 2-methyl-2-(methylthio)propanal O-[(dibutylaminosulfenyl)(methyl)carbamoyl]oxime] | 98

Same assay, conditions: Tetranychus urticae, foliar, 48 h, initial, SM, 39 PPM, 48 hours; read-out: Percent Kill

Compound | mortality at 39 ppm [%]
CCCCN(CCCC)SN(C)C(=O)ON=CC(C)(C)SC [Example III, 2-methyl-2-(methylthio)propanal O-[(dibutylaminosulfenyl)(methyl)carbamoyl]oxime] | 89

Same assay, conditions: Tetranychus urticae, foliar, 48 h, initial, SM, 156 PPM, 48 hours; read-out: Percent Kill

Compound | mortality at 156 ppm [%]
CCCCN(CCCC)SN(C)C(=O)ON=CC(C)(C)SC [Example III, 2-methyl-2-(methylthio)propanal O-[(dibutylaminosulfenyl)(methyl)carbamoyl]oxime] | 100

Same assay, conditions: Tetranychus urticae, foliar, 48 h, initial, SM, 1250 PPM, 48 hours; read-out: Percent Kill

Compound | mortality at 1250 ppm [%]
CCCCN(CCCC)SN(C)C(=O)ON=CC(C)(C)SC [Example III, 2-methyl-2-(methylthio)propanal O-[(dibutylaminosulfenyl)(methyl)carbamoyl]oxime] | 100

System: Milkweed bug
Assay: Initial contact activity, spray, milkweed bug
Format: in vivo, Oncopeltus fasciatus [Dallas]
Conditions: Oncopeltus fasciatus, 48 h, initial, MWB, 10 PPM, 48 hours; read-out: Percent Kill
Protocol: as §1

Compound | mortality at 10 ppm [%]
CCCCN(CCCC)SN(C)C(=O)ON=CC(C)(C)SC [Example III, 2-methyl-2-(methylthio)propanal O-[(dibutylaminosulfenyl)(methyl)carbamoyl]oxime] | 5

Same assay, conditions: Oncopeltus fasciatus, 48 h, initial, MWB, 39 PPM, 48 hours; read-out: Percent Kill

Compound | mortality at 39 ppm [%]
CCCCN(CCCC)SN(C)C(=O)ON=CC(C)(C)SC [Example III, 2-methyl-2-(methylthio)propanal O-[(dibutylaminosulfenyl)(methyl)carbamoyl]oxime] | 16

Same assay, conditions: Oncopeltus fasciatus, 48 h, initial, MWB, 156 PPM, 48 hours; read-out: Percent Kill

Compound | mortality at 156 ppm [%]
CCCCN(CCCC)SN(C)C(=O)ON=CC(C)(C)SC [Example III, 2-methyl-2-(methylthio)propanal O-[(dibutylaminosulfenyl)(methyl)carbamoyl]oxime] | 100

Same assay, conditions: Oncopeltus fasciatus, 48 h, initial, MWB, 1250 PPM, 48 hours; read-out: Percent Kill

Compound | mortality at 1250 ppm [%]
CCCCN(CCCC)SN(C)C(=O)ON=CC(C)(C)SC [Example III, 2-methyl-2-(methylthio)propanal O-[(dibutylaminosulfenyl)(methyl)carbamoyl]oxime] | 100

System: Pea aphid
Assay: Systemic activity, soil-watering, pea aphid
Format: in vivo, Acyrthosiphon pisum [Harris]
Conditions: Acyrthosiphon pisum, 48 h, systemic, PA, 10 PPM; read-out: Percent Kill
Protocol: as §1
Systemic Activity: Systemic activity was measured using a soil-watering technique. Test organisms were Mexican bean beetle, southern armyworm, pea aphid, and mites on plants as described above in this Example. With appropriate precautions to avoid contact of the solution with the test plant surfaces, 25 ml of a test solution, prepared as above to contain the desired amount of active ingredient, were poured evenly over the surface of the soil in which the plant was growing. The treated plants were maintained under normal growing conditions for three days to permit translocation of the toxicant, after which the leaves were infested. Two days after infestation, counts of living and dead insects were made.

Compound | mortality at 10 ppm [%]
CCCCN(CCCC)SN(C)C(=O)ON=CC(C)(C)SC [Example III, 2-methyl-2-(methylthio)propanal O-[(dibutylaminosulfenyl)(methyl)carbamoyl]oxime] | 0

Same assay, conditions: Acyrthosiphon pisum, 48 h, systemic, PA, 39 PPM; read-out: Percent Kill

Compound | mortality at 39 ppm [%]
CCCCN(CCCC)SN(C)C(=O)ON=CC(C)(C)SC [Example III, 2-methyl-2-(methylthio)propanal O-[(dibutylaminosulfenyl)(methyl)carbamoyl]oxime] | 64

System: Granary Weevil
Assay: Initial contact activity, granary weevil
Format: in vivo
Conditions: Sitophilus granarius, 48 h, initial, GW, 156 PPM, 48 hours; read-out: Percent Kill

Compound | mortality at 156 ppm [%]
CCCCN(CCCC)SN(C)C(=O)ON=CC(C)(C)SC [Example III, 2-methyl-2-(methylthio)propanal O-[(dibutylaminosulfenyl)(methyl)carbamoyl]oxime] | 100

Same assay, conditions: Sitophilus granarius, 48 h, initial, GW, 312 PPM, 48 hours; read-out: Percent Kill

Compound | mortality at 312 ppm [%]
CCCCN(CCCC)SN(C)C(=O)ON=CC(C)(C)SC [Example III, 2-methyl-2-(methylthio)propanal O-[(dibutylaminosulfenyl)(methyl)carbamoyl]oxime] | 100

Same assay, conditions: Sitophilus granarius, 48 h, initial, GW, 1250 PPM, 48 hours; read-out: Percent Kill

Compound | mortality at 1250 ppm [%]
CCCCN(CCCC)SN(C)C(=O)ON=CC(C)(C)SC [Example III, 2-methyl-2-(methylthio)propanal O-[(dibutylaminosulfenyl)(methyl)carbamoyl]oxime] | 100

System: Southern armyworm
Assay: Initial contact activity, leaf dip, southern armyworm
Format: in vivo, Spodoptera eridania [Cram.]
Conditions: Spodoptera eridania, foliar, 48 h, initial, AW, 156 PPM, 48 hours; read-out: Percent Kill
Protocol: as §1

Compound | mortality at 156 ppm [%]
CCCCN(CCCC)SN(C)C(=O)ON=CC(C)(C)SC [Example III, 2-methyl-2-(methylthio)propanal O-[(dibutylaminosulfenyl)(methyl)carbamoyl]oxime] | 0

Same assay, conditions: Spodoptera eridania, foliar, 48 h, initial, AW, 312 PPM, 48 hours; read-out: Percent Kill

Compound | mortality at 312 ppm [%]
CCCCN(CCCC)SN(C)C(=O)ON=CC(C)(C)SC [Example III, 2-methyl-2-(methylthio)propanal O-[(dibutylaminosulfenyl)(methyl)carbamoyl]oxime] | 0

Same assay, conditions: Spodoptera eridania, foliar, 48 h, initial, AW, 625 PPM, 48 hours; read-out: Percent Kill

Compound | mortality at 625 ppm [%]
CCCCN(CCCC)SN(C)C(=O)ON=CC(C)(C)SC [Example III, 2-methyl-2-(methylthio)propanal O-[(dibutylaminosulfenyl)(methyl)carbamoyl]oxime] | 0

Same assay, conditions: Spodoptera eridania, foliar, 48 h, initial, AW, 1250 PPM, 48 hours; read-out: Percent Kill

Compound | mortality at 1250 ppm [%]
CCCCN(CCCC)SN(C)C(=O)ON=CC(C)(C)SC [Example III, 2-methyl-2-(methylthio)propanal O-[(dibutylaminosulfenyl)(methyl)carbamoyl]oxime] | 20

System: Milkweed bug
Assay: Residual (7-day) contact activity, milkweed bug
Format: in vivo, Oncopeltus fasciatus [Dallas]
Conditions: Oncopeltus fasciatus, 168 h, residual 7-day, MWB, 156 PPM; read-out: Percent Kill
Protocol: as §1
Residual Contact Activity: The residual contact activity of the compounds was determined on the same organisms using the techniques described above, except that in each case the treated surface was allowed to dry and was exposed to normal light and air for seven days before introduction of the mites or insects.

Compound | mortality at 156 ppm [%]
CCCCN(CCCC)SN(C)C(=O)ON=CC(C)(C)SC [Example III, 2-methyl-2-(methylthio)propanal O-[(dibutylaminosulfenyl)(methyl)carbamoyl]oxime] | 20

Same assay, conditions: Oncopeltus fasciatus, 168 h, residual 7-day, MWB, 312 PPM; read-out: Percent Kill

Compound | mortality at 312 ppm [%]
CCCCN(CCCC)SN(C)C(=O)ON=CC(C)(C)SC [Example III, 2-methyl-2-(methylthio)propanal O-[(dibutylaminosulfenyl)(methyl)carbamoyl]oxime] | 70

Same assay, conditions: Oncopeltus fasciatus, 168 h, residual 7-day, MWB, 1250 PPM; read-out: Percent Kill

Compound | mortality at 1250 ppm [%]
CCCCN(CCCC)SN(C)C(=O)ON=CC(C)(C)SC [Example III, 2-methyl-2-(methylthio)propanal O-[(dibutylaminosulfenyl)(methyl)carbamoyl]oxime] | 100
